# Source: article PMC3029496 (Biochemistry, 2010)
# Molecular target: PncA H57D mutant (Mycobacterium tuberculosis, UniProt I6XD65, H57D)
# Type: biochemical
compound,measurement,value
NC(=O)c1cnccn1 [pyrazinamide],"decrease in Km, H57D mutant versus wild type",20 fold
same,"decrease in kcat (catalytic turnover), H57D mutant versus wild type",38 fold
same,kcat,0.10 ± 0.01 s⁻¹
